The values below come from article PMC11875816 (Heliyon, 2025).

Data set [1] relates to Aβ1-42-induced AD mice. The data set can be described thus: Retention test of Morris water maze. It counts as in vivo. Particulars: 60 s free swimming, platform removed, control group 9.51 ± 5.2. The procedure:
(§1) The water maze test evaluates the spatial memory of experimental animals by filling a circular pool (120 cm diameter × 60 cm hight) with water to a depth of 30 cm (maintained at 23 ± 2 °C). An escape zone (10 cm diameter) is designated in one section of the four quadrants, with the platform positioned 1 cm below the water surface and made invisible with skim milk powder. If the animal fails to locate the platform within 60 s, it is gently guided there and allowed to familiarize itself for 20 s. The test is conducted at 30-min intervals, four times daily for three consecutive days. Observations are recorded using a ceiling-mounted camera and analyzed using SMART 3.0 software (Panlab S.L., Barcelona, Spain).

Data set [2] concerns Aβ1-42-induced AD mice. The data set can be described thus: Morris water maze test. The format is in vivo, ICR male mice. Particulars: Aβ1-42 AD mice; for average escape latency time over the three days: AD group 42.7 ± 9.13, normal 27.66 ± 3.97.
From the text: (§2) Seven-week-old ICR male mice (25−30 g body weight range) were purchased from the Samtaco BIO, KOREA (Osan-si, Gyeonggi-do, Korea). […] All efforts were made to minimize suffering and the number of animals used. One day before dissection, only water was provided and food was fasted. Acclimatized experimental animals were grouped into seven containing 7 mice each (Table 1 and Fig. 1).
(§3) Prepare the test substance at a concentration appropriate for each test using purified water. […] Amyloid beta (Aβ1-42) was prepared and administered following standard protocols. BSEP was orally administered at doses of 200 mg/kg/day and 400 mg/kg/day for one week before and after Aβ1-42 injection, each at a volume of 200 μL. Following intravenous administration, broccoli extract was orally administered at the same doses for two weeks.
(§4) Aβ1-42 ([…]) was surgically injected into the brain ventricle of anesthetized mice (intravenous [IV] injection of xylazine [5 mg/kg] and ketamine [50 mg/kg]). The skull was precisely punctured at specific coordinates using a small drill, and amyloid beta was injected deeply into the brain using a microinjector. The control group underwent the same procedure with saline injections instead. Following surgery, the incision sites were disinfected and sutured, and the animals were allowed to recover in a cage.
as §1

In data set [3] the test system is Aβ1-42-induced AD mice. As to the kind of experiment: Passive avoidance test. It counts as in vivo, ICR male mice.
From the text: as §2, §3, §4
The passive avoidance experiment is a commonly used method for assessing enhancements in learning and memory capabilities. The experiment was conducted in a room with noise levels below 60 dB and dim lighting. The measuring instrument, Shuttle Box Test Package (Med Associates Inc., Vermont, USA), consisting of two rooms of equal size (25 × 25 cm). An automatic guillotine door was installed on the wall separating the two rooms. One room was illuminated (20 W light bulb), while the other remained dark. The mice were trained to associate the dark environment with an aversive stimulus. In the experiment (n = 3), upon entry into the dark room, an electric shock (foot-shock) was administered by passing a current of 3 mA for 5 s through a stainless-steel grid beneath the room. This procedure facilitated the mouse's recognition of the association between the dark environment and the aversive stimulus.

Data set [4] can be described thus: In vivo oral absorption of SFN and BSE in rats (pharmacokinetics). Further details: species or system Sprague–Dawley rats. Particulars: for AUCinf / AUClast / Cmax / MRT / T1/2 / Tmax: plasma SFN. Here is the method:
Sprague–Dawley rats (males, 6–7 weeks old, 200–250 g) were purchased from G-bio (Gwangju, Republic of Korea). The animals were housed under standard conditions in terms of temperature (23 ± 2 °C), relative humidity (RH; 55 ± 10 %), and light (12/12 h light/dark cycle). The animals had ad libitum access to a standard laboratory diet (Nestlé Purina PetCare Research, St. Louis, MO, USA) and ion-sterilized tap water. Ethical approval for this study was obtained from the IACUC of Mokpo National University (Jeonnam, Republic of Korea; approval no. MNU-IACUC-2023-009).
To examine the distinction of pharmacokinetic parameters of SFN after IV injection and oral administration of SFN or BSEP (containing 3 % SFN), Sprague–Dawley rats were orally administered 400 μL of SFN dissolved in 0.5 % sodium CMC (5 mg/kg, SFN-oral) or aqueous solution of BSEP (equivalent to 5 mg/kg SFN, BSEP-oral). To calculate the oral bioavailability, rats were intravenously injected with 200 μL of SFN (5 mg/kg SFN dissolved in 0.5 % sodium CMC) via the femoral vein. Then, 200-μL blood samples were collected from the cannulated femoral artery at predetermined time points and immediately centrifuged at 13,000×g for 5 min at 4 °C. The separated plasma samples were kept frozen at −80 °C until analysis.
To determine the plasma concentrations of SFN, the working solutions of SFN of 20, 15, 10, 5, 2, 1, 0.6, and 0.2 μg/mL, and 5 μg/mL phenylethyl isothiocyanate (internal standard, IS) were prepared in acetonitrile. Then, 10 μL of each working solution and 10 μL of IS were spiked with 180 μL of rat blank plasma for standard solution. Separately, 180 μL of each plasma sample was spiked with 10 μL of IS solution and 10 μL of acetonitrile. Next, 200 μL of a mixture of acetonitrile, water, and ethanol (25:25:50, v/v/v) was added to each plasma sample spiked with IS, followed by vortex mixing. After centrifugation at 13,000×g for 5 min at room temperature, the supernatant was transferred to another vial for further extraction using an HLB SPF μElution plate (Waters Corp., Milford, MA, USA). Each well of the SPE plate was conditioned and equilibrated by 200 μL of methanol and water, respectively. Then, the 400 μL of the collected supernatant was added to each well of the plate and aspirated under a 5 H g vacuum. After washing with 200 μL of water and 50 % methanol, each well was eluted with 400 μL (200 μL × 2 times) of acetonitrile.
Each eluted sample (10 μL) was injected into a UPLC system (ACQUITY UPLC; Waters Corp.) equipped with an ACQUITY UPLC BEH C18 column (2.1 × 50 mm, 1.7 μm; Waters Corp.) at 50 °C. SFN and IS were eluted by the mobile phase (10 mM ammonium acetate in water:0.1 % formic acid in acetonitrile [3:7, v/v]) at a flow rate of 0.6 mL/min. A mass spectrometer (Xevo TQ-S; Waters Corp.) was used for ionization of SFN or the IS (in positive ion multiple reaction-monitoring mode) at an electrospray voltage of 3.0 kV, with a source temperature of 120 °C, desolvation temperature of 500 °C, and desolvation gas flow rate of 800 L/h. SFN quantification was performed by reference to the m/z transition 178.0 → 114.0 at a cone voltage of 24 V and collision energy of 30 eV; for IS, the m/z transition was 164.0 → 130.0 at a cone voltage of 23 V and collision energy of 22 eV.

For data set [5] the following is noted: cited from earlier work.
For data set [6], the target named is acetylcholinesterase (AChE) (Mus musculus, UniProt P21836). Particulars: SFN 10 mg/kg oral. The procedure:
All efforts were made to minimize suffering and the number of animals used. One day before dissection, only water was provided and food was fasted. Acclimatized experimental animals were grouped into seven containing 7 mice each (Table 1 and Fig. 1).
as §3, §4

The conditions of data set [7]: cited from earlier work. This is another data set of the same source.
The conditions of data set [8]: rodents, within a few hours post-administration, oral or intraperitoneal; cited from earlier work.
The conditions of data set [9]: following the consumption of broccoli sprouts or supplements; cited from earlier work.
Data set [10] concerns Aβ1-42-induced AD mice. The data set can be described thus: Brain tissue TUNEL assay (hippocampal apoptosis). Particulars: Aβ1-42 AD mice; SFN 10 mg/kg oral; AD group 40.3 ± 10.4. It counts as in vivo, ICR male mice.
From the text: as §2, §3, §4

A further data set concerns TNF-α. As to the kind of experiment: TNF-α gene expression in LPS-induced RAW 264.7 macrophages (qPCR). The format is cell-based, murine. The procedure:
RAW 264.7 cells at passage 3 were seeded at 1 × 10^5 cells/mL to each well of a 6-well cell culture plate. The cells were cultured until it reached 70−80 % confluency and media were changing every 2 days. Upon confluency, removed the old media and cells were pre-treated with 1 mL non-serum media for 10−15 min in the incubator. All controls and samples, dilutions are prepared in non-serum media. Removed non-serum media and added with LPS (1 μg/mL) in non-serum media for 24 h. Next day, removed the LPS containing media and washed once with 1 × PBS and then the cells were treated with SFN solutions for 1 h. Removed the treatment solution, washed twice with 1 × PBS, pH 7.4. The cells were dissociated and collected by sedimentation (1500 rpm, 6 min).
The total RNA content was extracted following the TRIzol method according to the manufacturer's protocol. Quantification of mRNAs abundance was determined using 1-step reverse transcription real-time quantitative PCR with the QuantiTect SYBR Green RT-PCR Kit (Qiagen, Germany), performed on a Rotor-Gene Q Real-Time system (Qiagen, Germany). […] Target gene expression was normalized to constitutively expressed ACT-β gene, and the relative quantity of target gene mRNAs was expressed as 2^−ΔΔCt using the relative comparative threshold cycle method as previously described [[33], [34], [35]]. […]
In general terms: Quantitative PCR measures a nucleic acid by following its amplification.

Another data set deals with acetylcholine (ACh). As to the kind of experiment: Brain tissue acetylcholine (ACh) level. Further details: species or system ICR male mice. Particulars: mouse, in vivo.
From the text: as §2, §3, §4

Setting [11] is: single oral dose 5 mg/kg SFN (SFN in 0.5 % sodium CMC; BSEP aqueous solution equivalent to 5 mg/kg SFN).

In general, Cmax refers to the maximum level reached in the sampled fluid or tissue. By MRT is commonly meant a mean duration of stay, worked out from the concentration-time curve. By Tmax is commonly meant the time from dosing to the highest level.

Chain of acetylcholinesterase (AChE) (P21836 32-614): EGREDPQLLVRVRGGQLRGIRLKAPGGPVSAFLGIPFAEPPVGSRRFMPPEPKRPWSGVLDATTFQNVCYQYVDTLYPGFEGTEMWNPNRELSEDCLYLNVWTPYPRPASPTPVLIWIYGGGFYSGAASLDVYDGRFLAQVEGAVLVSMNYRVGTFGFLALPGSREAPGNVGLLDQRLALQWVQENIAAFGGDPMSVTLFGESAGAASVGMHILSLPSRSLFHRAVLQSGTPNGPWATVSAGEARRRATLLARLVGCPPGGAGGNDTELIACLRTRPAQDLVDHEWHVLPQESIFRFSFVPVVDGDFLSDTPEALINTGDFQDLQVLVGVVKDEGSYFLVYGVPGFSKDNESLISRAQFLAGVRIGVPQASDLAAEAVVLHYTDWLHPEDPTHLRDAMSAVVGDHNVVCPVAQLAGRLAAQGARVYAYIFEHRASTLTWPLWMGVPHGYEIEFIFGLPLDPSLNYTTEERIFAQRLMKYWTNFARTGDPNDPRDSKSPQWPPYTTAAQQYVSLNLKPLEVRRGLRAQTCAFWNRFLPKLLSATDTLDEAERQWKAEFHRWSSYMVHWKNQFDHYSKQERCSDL

Consider `COc1cc2c(cc1OC)C(=O)C(CC1CCN(Cc3ccccc3)CC1)C2` (stereo not drawn) [donepezil], for which the “time spent in the quadrant where the platform was previously located” value with Aβ1-42-induced AD mice [1] (donepezil 5 mg/kg) was 16.26 ± 4.61 s. In the data set on Aβ1-42-induced AD mice [2] (donepezil 5 mg/kg oral), the “escape latency times by the third day” value is “comparable to those of the normal control group”. In addition, the “average escape latency time over the three days” value in the data set on Aβ1-42-induced AD mice [2] (donepezil 5 mg/kg oral) was found to be 34.97 ± 3.21 s. The “time spent in the brightly lit room before entering the dark room” value is 100 s with Aβ1-42-induced AD mice [3] (donepezil 5 mg/kg oral, AD control 19); 149 s in the data set on Aβ1-42-induced AD mice [3] (donepezil 5 mg/kg oral, AD control 51); 29 s in the data set on Aβ1-42-induced AD mice [3] (donepezil 5 mg/kg oral, first of three values, AD control 25).

“1-isothiocyanato-4-methylsulfonylbutane [SFN]” registered a Bioavailability in data set [4] (single IV dose 5 mg/kg SFN (reference)) of 100%. In data set [4] (single IV dose 5 mg/kg SFN), the AUCinf came out at 390 ± 33.7 ng·h/mL, the AUClast is reported as 380 ± 27.5 ng·h/mL, the Cmax worked out at 414 ± 65.1 ng/mL and the MRT amounted to 0.971 ± 0.224 h. In addition, in data set [4] (single IV dose 5 mg/kg SFN), the T1/2 is on record as 1.35 ± 0.806 h and the Tmax amounted to 0.170 ± 0.000 h. For the same compound, in data set [4] (setting [11]), the AUCinf is given as 259 ± 39.6 ng·h/mL, the AUClast stood at 241 ± 46.1 ng·h/mL, the peak concentration (Cmax) was 96.2 ± 13.1 ng/mL and the MRT came out at 3.14 ± 0.835 h. In addition, in data set [4] (setting [11]), the T1/2 amounted to 1.82 ± 0.574 h and the Tmax is 1.00 ± 0.000 h. Also, the Bioavailability in data set [4] (single oral dose 5 mg/kg SFN (SFN in 0.5 % sodium CMC; BSEP aqueous solution equivalent to 5 mg/kg SFN), versus SFN-IV) was 63.4 ± 12.1%. For the same compound, in data set [5], the “doses that may lead to toxicity” value is “exceeding 150 mg/kg body weight”. For the same compound, the “time spent in the quadrant where the platform was previously located” value with Aβ1-42-induced AD mice [1] (SFN 10 mg/kg) worked out at 8.83 ± 5.92 s. Moreover, in the data set on Aβ1-42-induced AD mice [2] (SFN 10 mg/kg oral), the “escape latency times by the third day” value was “comparable to those of the normal control group” and the “average escape latency time over the three days” value turned out to be 28.01 ± 2.95 s. Besides, in the data set on Aβ1-42-induced AD mice [3] (SFN 10 mg/kg oral, AD control 19), the “time spent in the brightly lit room before entering the dark room” value is listed as 90 s. The “time spent in the brightly lit room before entering the dark room” value in the data set with Aβ1-42-induced AD mice [3] (SFN 10 mg/kg oral, AD control 51) amounted to 166 s. Moreover, in the data set with Aβ1-42-induced AD mice [3] (SFN 10 mg/kg oral, first of three values, AD control 25), the “time spent in the brightly lit room before entering the dark room” value is on record as 37 s. In [6] (AD control 162 %), the “brain AChE activity relative to normal group (100 %)” value was 105%. In data set [6] (AD control 1707.1 ± 97.12, normal 1057.44 ± 75.41), the “brain AChE activity” value was 1104.65 ± 123.41 mU/mL. Besides, the “typical urinary excretion, of the administered dose” value in [7] is given as 70−90%. Further, the SFN brain concentrations in data set [8] is 0.5 to 2 µM. For the same compound, in [9], the “SFN level detected in human plasma” value is listed as “nanomolar to low micromolar levels”. In the data set on Aβ1-42-induced AD mice [10], the “number of TUNEL-positive cells in the hippocampus” value turned out to be 19.0 ± 5.2 cells. Further, in the data set on TNF-α (1:100 dilution (of SFN 210 ppm; of 1 % BSEP)), the “reduction of TNF-α expression versus control (LPS stimulation only)” value is reported as 30–40%. The TNF-α gene expression entry in the data set with TNF-α (undiluted (positive control SFN 210 ppm; 1 % BSEP solution), LPS 1 μg/mL) is recorded as “significant downregulation”. Further, in the data set on acetylcholine (ACh), the “brain ACh level” value was 1.2 ± 0.1 nmol/µL.
